Target: T1, Angiotensin-converting enzyme (Oryctolagus cuniculus, UniProt P12822)
T1 sequence (P12822 whole entry): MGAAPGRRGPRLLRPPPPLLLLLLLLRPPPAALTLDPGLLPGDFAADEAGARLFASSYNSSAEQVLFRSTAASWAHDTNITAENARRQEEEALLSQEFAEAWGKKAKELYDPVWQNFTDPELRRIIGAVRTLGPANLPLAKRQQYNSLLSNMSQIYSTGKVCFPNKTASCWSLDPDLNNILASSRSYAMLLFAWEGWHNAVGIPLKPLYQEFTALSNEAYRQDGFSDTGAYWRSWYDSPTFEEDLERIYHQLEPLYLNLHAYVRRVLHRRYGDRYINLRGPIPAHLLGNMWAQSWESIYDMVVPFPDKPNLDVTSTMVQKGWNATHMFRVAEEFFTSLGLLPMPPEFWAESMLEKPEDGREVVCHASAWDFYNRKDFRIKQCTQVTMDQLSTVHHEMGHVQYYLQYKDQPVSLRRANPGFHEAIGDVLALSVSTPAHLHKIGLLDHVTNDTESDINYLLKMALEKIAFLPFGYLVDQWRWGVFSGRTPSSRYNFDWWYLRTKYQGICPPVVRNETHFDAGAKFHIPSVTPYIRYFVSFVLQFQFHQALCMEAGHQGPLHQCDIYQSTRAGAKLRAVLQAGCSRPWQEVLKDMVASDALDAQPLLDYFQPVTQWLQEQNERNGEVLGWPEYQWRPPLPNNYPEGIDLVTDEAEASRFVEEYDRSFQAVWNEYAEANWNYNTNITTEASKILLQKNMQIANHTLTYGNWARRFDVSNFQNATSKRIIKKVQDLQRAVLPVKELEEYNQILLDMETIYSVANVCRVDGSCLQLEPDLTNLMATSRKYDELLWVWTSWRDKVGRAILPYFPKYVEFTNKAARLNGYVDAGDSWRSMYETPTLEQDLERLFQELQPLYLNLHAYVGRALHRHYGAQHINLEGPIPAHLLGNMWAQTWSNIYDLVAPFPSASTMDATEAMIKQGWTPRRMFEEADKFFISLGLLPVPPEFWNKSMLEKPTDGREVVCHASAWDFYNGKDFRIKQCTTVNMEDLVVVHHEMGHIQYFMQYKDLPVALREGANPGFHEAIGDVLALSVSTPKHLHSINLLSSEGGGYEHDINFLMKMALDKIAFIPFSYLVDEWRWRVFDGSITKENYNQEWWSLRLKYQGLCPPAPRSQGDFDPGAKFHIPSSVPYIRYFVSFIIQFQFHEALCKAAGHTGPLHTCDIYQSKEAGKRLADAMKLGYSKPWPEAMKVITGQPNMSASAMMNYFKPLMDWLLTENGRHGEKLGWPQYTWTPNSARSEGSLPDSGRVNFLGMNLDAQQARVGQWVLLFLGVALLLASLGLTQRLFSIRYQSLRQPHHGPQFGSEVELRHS
Assay: Inhibitory concentration against rabbit lung Angiotensin I converting enzyme (ACE)

## O=C(O)[C@H](CCc1ccccc1)NC1Cc2ccccc2C2COC[C@H](C(=O)O)N2C1=O (stereo partly specified)
  IC50: 0.09 nM

Reference: ChEMBL document CHEMBL1126423, “Acid-catalyzed O-allylation of -hydroxy--amino acids: an entry into conformationally constrained dipeptide surrogates” (Bioorg Med Chem Lett, 1992)
